{"source": "patent US11820833B2", "about": "“Peptides that inhibit binding of EPCR to its ligand to treat inflammation” (Tel HaShomer Medical Research Infrastructure and Services …, priority 2016, dated 2023)", "key": {"[1]": {"system": "commercial human pool plasma", "test": "Coagulation tests (PT, APTT, TT, anti Xa, aPC-resistance) in human pool plasma", "protocol": "All coagulation tests as PT (Prothrombin Time), APTT (activated partial thromboplastin time), TT (Thrombin Time), anti Xa, aPC-resistance were carried out in collaboration with the routine coagulation lab in Sheba Medical Center and conducted on a commercial human pool plasma samples.\nCoagulation tests were conducted at the Sheba Medical Center (as described in details in the ‘general materials and experimental procedures’ section above) and a commercial pool human plasma was used. PEP6 was applied in various concentrations for injection in vivo and for evaluating the safety and the width of the therapeutic window for treatment."}, "[2]": {"system": "Long Term Potentiation (LTP), hippocampal slices", "test": "In vitro electrophysiology, Long Term Potentiation in hippocampal slices", "parameters": "species or system mice", "details": "peptides at 10 μM, HFS 100 Hz 1 second", "protocol": "The efficacy of the peptides was tested using in vitro electrophysiology. Here the present inventors tested whether these peptides have similar effects as aPC in enhancing Long Term Potentiation. Briefly, mice (10-12 weeks of age) were rapidly decapitated, the hippocampus was removed, and 400 μm slices were prepared using a vibroslicer. Slices were incubated for 1.5 hours in a humidified, carbogenated (5% CO2 and 95% O2) gas atmosphere at 33±1° C. and were perfused with ACSF [containing (in mm) 124 NaCl, 2 KCl, 26 NaHCO3, 1.24 KH2PO4, 2.5 CaCl2, 2 MgSO4, and 10 glucose, pH 7.4] in a standard interface chamber. Recordings were made with a glass pipette containing 0.75 m NaCl (4 MΩ) placed in the stratum radiatum CA1.\nStimulation was evoked using a Master 8 pulse stimulator (A.M.P.I., Jerusalem, Israel) and was delivered through a bipolar nichrome electrode placed at a side of the recording electrode. LTP was induced by high-frequency stimulation (HFS) consisting of 100 pulses at twice the test intensity, delivered at a frequency of 100 Hz (100 Hz, 1 second). Before applying the tetanic stimulation, baseline values were recorded at a frequency of 0.033 Hz. Responses were digitized at 5 kHz and stored on a computer. Off-line analysis and data acquisition were performed using the LTP Program (Anderson and Collingridge, 2001). Peptides were tested at a concentration of 10 μM."}}, "note": "“Also recorded” adds a separate entry of the source. Non-standard residues stand in square brackets, D forms with d. Residues, ends and D or L forms follow the SMILES beside them. *: point of attachment. Gla = N[C@@H](CC(C(=O)O)C(=O)O)C(=O)O; Tos = Cc1ccc(S(=O)(=O)*)cc1", "data": [{"compound": "Cc1ccc(S(=O)(=O)N[C@@H](CC(C(=O)O)C(=O)O)C(=O)N[C@@H](CCC(=O)O)C(=O)N[C@@H](C)C(=O)N[C@@H](CCCNC(=N)N)C(N)=O)cc1", "note": "[Pep6, Tos-{Gla}-EAR-NH2] (Tos-[Gla]EAR-NH2)", "values": [{"measurement": "Effect in APTT (activated partial thromboplastin time) test", "setting": "[1]", "value": "small but statistically significant effect"}, {"measurement": "Effect in PT (Prothrombin Time) test", "setting": "[1]", "value": "small but statistically significant effect"}, {"measurement": "Effect on coagulation tests (all conducted tests)", "setting": "[1]; any concentration tested", "value": "either no effect or clinical-irrelevant effect; also recorded: did not affect"}]}, {"compound": "Tos-{Gla}-EAK-NH2 (Tos-[Gla]EAK-NH2; SMILES Cc1ccc(S(=O)(=O)N[C@@H](CC(C(=O)O)C(=O)O)C(=O)N[C@@H](CCC(=O)O)C(=O)N[C@@H](C)C(=O)N[C@@H](CCCCN)C(N)=O)cc1) [Pep5, N-terminal Tosyl, C-terminal amide, γ-carboxylated Glu]", "values": [{"measurement": "Effect on Long Term Potentiation (LTP)", "setting": "[2]", "value": "enhanced"}]}, {"compound": "Tos-{Gla}-EAK-{Gla}-IF-NH2 (Tos-[Gla]EAK[Gla]IF-NH2; SMILES CC[C@H](C)[C@H](NC(=O)[C@H](CC(C(=O)O)C(=O)O)NC(=O)[C@H](CCCCN)NC(=O)[C@H](C)NC(=O)[C@H](CCC(=O)O)NC(=O)[C@H](CC(C(=O)O)C(=O)O)NS(=O)(=O)c1ccc(C)cc1)C(=O)N[C@@H](Cc1ccccc1)C(N)=O) [Pep7, N-terminal Tosyl, C-terminal amide, γ-carboxylated Glu]", "values": [{"measurement": "Effect on Long Term Potentiation (LTP)", "setting": "[2]", "value": "enhanced"}]}, {"compound": "Tos-{Gla}-EAR-{Gla}-IF-NH2 (Tos-[Gla]EAR[Gla]IF-NH2; SMILES CC[C@H](C)[C@H](NC(=O)[C@H](CC(C(=O)O)C(=O)O)NC(=O)[C@H](CCCNC(=N)N)NC(=O)[C@H](C)NC(=O)[C@H](CCC(=O)O)NC(=O)[C@H](CC(C(=O)O)C(=O)O)NS(=O)(=O)c1ccc(C)cc1)C(=O)N[C@@H](Cc1ccccc1)C(N)=O) [Pep8, N-terminal Tosyl, C-terminal amide, γ-carboxylated Glu]", "values": [{"measurement": "Effect on Long Term Potentiation (LTP)", "setting": "[2]", "value": "enhanced"}]}]}
